Test results taken from US10800792B2, “Inhibitors of Bruton's tyrosine kinase and method of their use” (JANSSEN PHARMACEUTICA NV, priority 2015, dated 2020).

Target: unphosphorylated-BTK kinase domain (UP-BTK), GST-tagged human BTK (389-659aa) (Homo sapiens (Human), UniProt Q06187)
Test: BTK kinase Lanthascreen binding assay
Details: unphosphorylated-BTK kinase domain, 50 nM Tracer 236, 60 minutes; pIC50 = negative log of the IC50 in molar
How it was run: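 Values are pIC50, i.e. negative log of IC50 in molar, derived from concentration–response fitting. Each compound competes with a fluorescently labelled tracer for the unphosphorylated kinase domain.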

unphosphorylated-BTK kinase domain (UP-BTK), GST-tagged human BTK (389-659aa), sequence (Q06187 389-659): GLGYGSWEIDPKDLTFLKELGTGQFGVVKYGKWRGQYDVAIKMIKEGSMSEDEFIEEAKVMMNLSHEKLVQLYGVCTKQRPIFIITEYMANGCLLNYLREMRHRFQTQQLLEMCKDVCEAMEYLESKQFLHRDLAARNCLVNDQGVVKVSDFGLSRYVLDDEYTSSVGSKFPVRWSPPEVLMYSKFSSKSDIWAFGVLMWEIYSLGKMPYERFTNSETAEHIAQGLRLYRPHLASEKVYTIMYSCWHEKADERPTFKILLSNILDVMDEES

Row | Compound | BTK_I_binding pIC50
1 | C=CC(=O)N1C[C@H](NC(=O)c2sc3nccc4c3c2NC(=O)N4c2ccc(Oc3ccccc3)cc2)[C@@H](O)C1 [Example 463, N-((3S,4S)-1-Acryloyl-4-hydroxypyrrolidin-3-yl)-4-oxo-5-(4-phenoxyphenyl)-4,5-dihydro-3H-1-thia-3,5,8-triazaacenaphthylene-2-carboxamide] | 7.9
2 | O=C(N[C@H]1CNC[C@@H]1O)c1sc2nccc3c2c1NC(=O)N3c1ccc(Oc2ccccc2)cc1 [Example 464, N-((3S,4S)-4-Hydroxypyrrolidin-3-yl)-4-oxo-5-(4-phenoxyphenyl)-4,5-dihydro-3H-1-thia-3,5,8-triazaacenaphthylene-2-carboxamide] | 6.8
3 | O=C(N[C@@H]1CCCNC1)c1sc2nccc3c2c1NC(=O)N3c1cccc(Cc2ccccc2)c1 [Example 465, (R)-5-(3-Benzylphenyl)-4-oxo-N-(piperidin-3-yl)-4,5-dihydro-3H-1-thia-3,5,8-triazaacenaphthylene-2-carboxamide] | 6.2
4 | O=C(N[C@@H]1CCCNC1)c1sc2nccc3c2c1NC(=O)N3c1cccc(Oc2ccccc2)c1 [Example 466, (R)-4-Oxo-5-(3-phenoxyphenyl)-N-(piperidin-3-yl)-4,5-dihydro-3H-1-thia-3,5,8-triazaacenaphthylene-2-carboxamide] | 6.7
5 | C=CC(=O)N1CC(NC(=O)c2sc3nccc4c3c2NC(=O)N4c2ccc(Oc3ccccc3)cc2C)C1 [Example 496, N-(1-Acryloylazetidin-3-yl)-5-(*S)-(2-methyl-4-phenoxyphenyl)-4-oxo-4,5-dihydro-3H-1-thia-3,5,8-triazaacenaphthylene-2-carboxamide] | 7.4
6 | C=CC(=O)N1CCC[C@@H](NC(=O)c2sc3nccc4c3c2NC(=O)N4c2ncc(Oc3ccccc3)cc2C)C1 [Example 497, (R)—N-(1-Acryloylpiperidin-3-yl)-5-(3-methyl-5-phenoxypyridin-2-yl)-4-oxo-4,5-dihydro-3H-1-thia-3,5,8-triazaacenaphthylene-2-carboxamide] | 7.9
7 | C=CC(=O)N1CCC[C@@H](NC(=O)c2sc3nccc4c3c2NC(=O)N4c2cccc(-c3cccc(F)c3F)c2)C1 [Example 498, (R)—N-(1-Acryloylpiperidin-3-yl)-5-(2′,3′-difluoro-[1,1′-biphenyl]-3-yl)-4-oxo-4,5-dihydro-3H-1-thia-3,5,8-triazaacenaphthylene-2-carboxamide] | 7.8
8 | C=CC(=O)N1CCC[C@@H](NC(=O)c2sc3nccc4c3c2NC(=O)N4c2cccc(-c3cccc(F)c3)c2)C1 [Example 500, (R)—N-(1-Acryloylpiperidin-3-yl)-5-(3′-fluoro-[1,1′-biphenyl]-3-yl)-4-oxo-4,5-dihydro-3H-1-thia-3,5,8-triazaacenaphthylene-2-carboxamide] | 8.1
9 | C=CC(=O)N1CCC[C@@H](NC(=O)c2sc3nccc4c3c2NC(=O)N4c2cccc(-c3ccccc3C)c2)C1 [Example 504, (R)—N-(1-Acryloylpiperidin-3-yl)-5-(2′-methyl-[1,1′-biphenyl]-3-yl)-4-oxo-4,5-dihydro-3H-1-thia-3,5,8-triazaacenaphthylene-2-carboxamide] | 8.0
10 | C=CC(=O)N1CCC[C@@H](NC(=O)c2sc3nccc4c3c2NC(=O)N4c2ccc(Oc3ccccc3)nc2)C1 [Example 506, (R)—N-(1-Acryloylpiperidin-3-yl)-4-oxo-5-(6-phenoxypyridin-3-yl)-4,5-dihydro-3H-1-thia-3,5,8-triazaacenaphthylene-2-carboxamide] | 7.9
11 | C=CC(=O)N1CCC[C@@H](NC(=O)c2sc3nccc4c3c2NC(=O)N4c2cccc(-c3cccc(Cl)c3)c2)C1 [Example 507, (R)—N-(1-Acryloylpiperidin-3-yl)-5-(3′-chloro-[1,1′-biphenyl]-3-yl)-4-oxo-4,5-dihydro-3H-1-thia-3,5,8-triazaacenaphthylene-2-carboxamide] | 7.8
12 | C=CC(=O)N1CCC[C@@H](NC(=O)c2sc3nccc4c3c2NC(=O)N4c2cccc(-c3ccccc3Cl)c2)C1 [Example 510, (R)—N-(1-Acryloylpiperidin-3-yl)-5-(2′-chloro-[1,1′-biphenyl]-3-yl)-4-oxo-4,5-dihydro-3H-1-thia-3,5,8-triazaacenaphthylene-2-carboxamide] | 8.0
13 | C=CC(=O)N1CCC[C@@H](NC(=O)c2sc3nccc4c3c2NC(=O)N4c2ccnc(-c3ccccc3)c2)C1 [Example 512, (R)—N-(1-Acryloylpiperidin-3-yl)-4-oxo-5-(2-phenylpyridin-4-yl)-4,5-dihydro-3H-1-thia-3,5,8-triazaacenaphthylene-2-carboxamide] | 7.8
14 | C=CC(=O)N1CCC[C@@H](NC(=O)c2sc3nccc4c3c2NC(=O)N4c2ccc(Oc3ccccc3)cn2)C1 [Example 513, (R)—N-(1-Acryloylpiperidin-3-yl)-4-oxo-5-(5-phenoxypyridin-2-yl)-4,5-dihydro-3H-1-thia-3,5,8-triazaacenaphthylene-2-carboxamide] | 8.2
15 | C=CC(=O)N1CCC[C@@H](NC(=O)c2sc3nccc4c3c2NC(=O)N4c2cccc(-c3ccc(F)cc3F)c2)C1 [Example 515, (R)—N-(1-Acryloylpiperidin-3-yl)-5-(2′,4′-difluoro-[1,1′-biphenyl]-3-yl)-4-oxo-4,5-dihydro-3H-1-thia-3,5,8-triazaacenaphthylene-2-carboxamide] | 7.7
16 | C=CC(=O)N1CCC[C@@H](NC(=O)c2sc3nccc4c3c2NC(=O)N4c2cccc(Cc3ccccc3)c2)C1 [Example 516, (R)—N-(1-Acryloylpiperidin-3-yl)-5-(3-benzylphenyl)-4-oxo-4,5-dihydro-3H-1-thia-3,5,8-triazaacenaphthylene-2-carboxamide] | 7.7
17 | C=CC(=O)N1CCC[C@@H](NC(=O)c2sc3nccc4c3c2NC(=O)N4c2cccc(-c3cccc(C)c3)c2)C1 [Example 517, (R)—N-(1-Acryloylpiperidin-3-yl)-5-(3′-methyl-[1,1′-biphenyl]-3-yl)-4-oxo-4,5-dihydro-3H-1-thia-3,5,8-triazaacenaphthylene-2-carboxamide] | 7.5
18 | C=CC(=O)N1CCC[C@@H](NC(=O)c2sc3nccc4c3c2NC(=O)N4c2cccc(C3CCCCC3)c2)C1 [Example 519, (R)—N-(1-Acryloylpiperidin-3-yl)-5-(3-cyclohexylphenyl)-4-oxo-4,5-dihydro-3H-1-thia-3,5,8-triazaacenaphthylene-2-carboxamide] | 7.3
19 | C=CC(=O)N1CCC[C@@H](NC(=O)c2sc3nccc4c3c2NC(=O)N4c2cccc(-c3ccc(C)cc3)c2)C1 [Example 521, (R)—N-(1-Acryloylpiperidin-3-yl)-5-(4′-methyl-[1,1′-biphenyl]-3-yl)-4-oxo-4,5-dihydro-3H-1-thia-3,5,8-triazaacenaphthylene-2-carboxamide] | 7.5
20 | C=CC(=O)N1CCC[C@@H](NC(=O)c2sc3nccc4c3c2NC(=O)N4c2ccc3c(c2)OC(F)(F)O3)C1 [Example 525, (R)—N-(1-Acryloylpiperidin-3-yl)-5-(2,2-difluorobenzo[d][1,3]dioxol-5-yl)-4-oxo-4,5-dihydro-3H-1-thia-3,5,8-triazaacenaphthylene-2-carboxamide] | 7.5
21 | C=CC(=O)N1CCC[C@@H](NC(=O)c2sc3nccc4c3c2NC(=O)N4c2cc(-c3ccccc3)ccn2)C1 [Example 526, (R)—N-(1-Acryloylpiperidin-3-yl)-4-oxo-5-(4-phenylpyridin-2-yl)-4,5-dihydro-3H-1-thia-3,5,8-triazaacenaphthylene-2-carboxamide] | 7.6
22 | C=CC(=O)N1CCC[C@@H](NC(=O)c2sc3nccc4c3c2NC(=O)N4c2cccc(Oc3ccccc3)c2)C1 [Example 527, (R)—N-(1-Acryloylpiperidin-3-yl)-4-oxo-5-(3-phenoxyphenyl)-4,5-dihydro-3H-1-thia-3,5,8-triazaacenaphthylene-2-carboxamide] | 8.1
23 | C=CC(=O)N1CCC[C@@H](NC(=O)c2sc3nccc4c3c2NC(=O)N4c2cnc(Oc3ccccc3)cn2)C1 [Example 528, (R)—N-(1-Acryloylpiperidin-3-yl)-4-oxo-5-(5-phenoxypyrazin-2-yl)-4,5-dihydro-3H-1-thia-3,5,8-triazaacenaphthylene-2-carboxamide] | 7.8
24 | C=CC(=O)N1CCC[C@@H](NC(=O)c2sc3nccc4c3c2NC(=O)N4c2cccc(C(C)C)c2)C1 [Example 529, (R)—N-(1-Acryloylpiperidin-3-yl)-5-(3-isopropylphenyl)-4-oxo-4,5-dihydro-3H-1-thia-3,5,8-triazaacenaphthylene-2-carboxamide] | 7.6
25 | C=CC(=O)N1CC[C@@H](NC(=O)c2sc3nccc4c3c2NC(=O)N4c2cccc(-c3ccccc3)c2)C1 [Example 531, (R)-5-([1,1′-Biphenyl]-3-yl)-N-(1-acryloylpyrrolidin-3-yl)-4-oxo-4,5-dihydro-3H-1-thia-3,5,8-triazaacenaphthylene-2-carboxamide] | 7.5
26 | C=CC(=O)N1CCC[C@@H](NC(=O)c2sc3nccc4c3c2NC(=O)N4c2cccc(CCC)c2)C1 [Example 533, (R)—N-(1-Acryloylpiperidin-3-yl)-4-oxo-5-(3-propylphenyl)-4,5-dihydro-3H-1-thia-3,5,8-triazaacenaphthylene-2-carboxamide] | 7.5
27 | C=CC(=O)N1CCC[C@@H](NC(=O)c2sc3nccc4c3c2NC(=O)N4c2cccc(C3CCC3)c2)C1 [Example 534, (R)—N-(1-Acryloylpiperidin-3-yl)-5-(3-cyclobutylphenyl)-4-oxo-4,5-dihydro-3H-1-thia-3,5,8-triazaacenaphthylene-2-carboxamide] | 7.8
